For orientation: solubility means how much of the substance goes into solution per volume.

Results on 2 molecules are retold here after patent EP2514430B1, “METHOD AND APPARATUS FOR SIMULTANEOUSLY MANUFACTURING ULTRA PURE BETULIN AND HIGHLY PURE BETULINIC ACID FROM BIRCH BARK” (Korea Institute of Energy Research, priority 2009, dated 2011).

Data set [1] has as its system human prostatic cancer cells (LNCaP, PC-3, and DU-145) and fibroblast cells. The settings on record: PC-3, DU-145 and fibroblast cells, US 2006/0154903; cited from earlier work.
Data set [2] is described as follows: Solubility of betulin in single and mixed polar organic solvents. It counts as physicochemical. The settings on record: organic solvent or mixture. An excerpt:
This recrystallization step is an intermediate step for obtaining ultrapure betulin of 99.5% or more and highly-pure betulinic acid of 95% or more. The outer bark and inner bark of a birch tree generally includes betulin, betulinic acid, lupeol (CAS 545-47-1) and polar pigment components. […] When the outer bark of a birch tree is extracted using such a polar organic solvent, a crude extract including 70 ∼ 83% of betulin, 4 ∼ 8% of betulinic acid and residual polar pigment components can be obtained. In this case, in order to use betulin and betulinic acid as intermediate materials for fine chemical products or medical supplies or additives for enhancing antiviral activity, the crude extract is recrystallized.
Preferably, a mixture of organic solvents having a density range of 0.91 g/mL ∼ 1.37 g/mL may be used. […] The crude extract is recrystallized using such a mixture of organic solvents to obtain a high-quality crystallized product (including a secondary crystallized product) including 94 ∼ 96.5% of betulin, 3 ∼ 4% of betulinic acid and residual polar pigment components, and then ultrapure betulin is produced using a 4-bed eluent swing continuous adsorption unit.

For another data set, the system named is herpes simplex viruses. The settings on record: betulin mixed with acyclovir; Gong et al. 2004; cited from earlier work.

≈ marks a conversion by molar mass, not a printed value. Where two headings read alike, the source gives them in different places.

As to `C=C(C)[C@@H]1CC[C@]2(C(=O)O)CC[C@]3(C)[C@H](CC[C@@H]4[C@@]5(C)CCC(=O)C(C)(C)[C@@H]5CC[C@]43C)[C@@H]12` [butulonic acid], in data set [1], the “inhibiting the growth of human prostatic cancer cells and fibroblast cells” value is “has an effect on inhibiting the growth”.

Turning to `C=C(C)[C@@H]1CC[C@]2(CO)CC[C@]3(C)[C@H](CC[C@@H]4[C@@]5(C)CC[C@H](O)C(C)(C)[C@@H]5CC[C@]43C)[C@@H]12` [betulin], the solubility was no more than 40.7 mg/mL in data set [2] (chloroform, at 60.5°C, read-out: solubility of betulin in chloroform); 38.6 mg/mL (≈ 87.2 mM) in data set [2] (chloroform:ethanol 18:82 v/v, density = 0.91 g/mL, at 60.5°C, read-out: solubility of betulin in the mixed solvent of chloroform and ethanol); 140 mg/mL (≈ 316 mM) in data set [2] (chloroform:ethanol 57:43 v/v, density = 1.19 g/mL, at 60.5°C, read-out: solubility of betulin in the mixed solvent of chloroform and ethanol); 163 mg/mL (≈ 368 mM) in data set [2] (chloroform:ethanol 82:18 v/v, density = 1.37 g/mL, at 60.5°C, read-out: solubility of betulin in the mixed solvent of chloroform and ethanol); no more than 23 mg/mL in data set [2] (ethanol, at 77.1°C, read-out: solubility of betulin in ethanol); no more than 18.5 mg/mL in data set [2] (ethanol, at 78°C, read-out: solubility of betulin in ethanol). Further, the solubility in data set [2] (ethyl acetate, at 60.5°C, read-out: solubility of betulin in ethyl acetate) was no more than 40.7 mg/mL; in data set [2] (ethyl acetate, at 77.1°C, read-out: solubility of betulin in ethyl acetate), no more than 23 mg/mL; in data set [2] (methanol, at 64.7°C, read-out: solubility of betulin in methanol), no more than 6.73 mg/mL. In addition, in the data set with herpes simplex viruses, the “antiviral effects to herpes simplex viruses” value is reported as “antiviral effects were provided”.
